Entries after “also recorded” stand apart in the source; their conditions may differ.
Experiments:
L929 cells = experiment: Propidium iodide staining of L929 clones with inducible N17 Ras or V12 Ras; format: cell-based, murine; details: IPTG-induced expression
Method: Ras expression was induced with 5 mM IPTG for 10 hours and cells were subsequently treated with 5 ng/ml TNFα in the presence or absence of 0.5 ng/ml bFGF for 16 hours. Cells were fixed and stained with propidium iodide. The percentage of apoptotic cells was calculated. Solid bars represent cells induced with IPTG; hatched bars, induced with IPTG and treated with TNFα; checked bars, induced with IPTG and treated with TNFα and bFGF.
Cell lines and culture. […] JNK activity was measured using a solid state kinase assay in which glutathione S-transferase-c-Jun (1-79) (GST-JUN) cound to glutathione-Sepharose 4B beads was used to affinity purify JNK and then JNK activity was measured in an in vitro kinase assay using the sepharose bound GST-Jun as a substrate (Hibi, M., et al. (1993) Genes & Development 7:2135-2148). […] MAPK Assay MAPK activity was measured exactly as described previously (Gardner, A. M., et al. (1994) Meth. Enzymol. 238:258-270) with the exception that MonoQ FPLC fractionation was replaced by step elution from a DEAE-Sephacel column using 0.5 M NaCl in loading buffer. […]

98 kD PC12 cell MEKK = experiment: MEKK immunoprecipitate kinase assay from PC12 cells with kinase inactive MEK-1; format: cell-based; details: for MEKK activity after stimulation (in words): serum starved PC12 cells, 5 minutes
Method: Reactions were stopped by the addition of 2×SDS sample buffer (20 μl). The samples were boiled for 3 minutes and subjected to SDS-PAGE and autoradiography. Raf-B was immunoprecipitated from the same untreated and treated PC12 cell lysates as above with an antiserum to a COOH-terminal peptide of Raf-B (Santa Cruz Biotechnology, Inc.) and assayed similarly. Raf-1 was immunoprecipitated with an antiserum to the 12 COOH-terminal amino acids of Raf-1 (Santa Cruz Biotechnology, Inc.).
Data represent the relative magnitude of the response for each timepoint as quantitated by phosphorimager analysis of radioactive gels from a typical experiment.
Expression of N^17Ras was induced in PC12 clones stably transfected with the N^17Ras gene by the addition of dexamethasone to the starvation media. […] PC12 cell clones stably transfected with the N^17Ras gene are less responsive to EGF-mediated activation of MEKK activity than are wild type PC12 cells. […] MEKK activity in immunoprecipitates or column fractions was dissociable from that of EGF-stimulated c-Raf-1 and Raf-B activities.
To determine whether the growth factor-mediated activation of 98 kD PC12 cell MEKK was inhibited by PKA, forskolin was used to elevate intracellular cAMP and activate PKA. […] Raf-B activity was also assayed from the same cell lysates to test whether its regulation differed from that of MEKK. Raf-B was immunoprecipitated from the same cell lysates as described above and assayed for its ability to phosphorylate MEK-1 as described above.

JNK = JNK solid state kinase assay (GST-Jun) in L929 cells; format: cell-based, murine; details: L929 cells
Method: (§1) In panel A cells were treated for 10 minutes with the indicated concentration of TNFα. JNK activation was measured using a solid phase kinase assay resulting in phosphorylation of GST-Jun. In […] the time course of MAPK activation is shown. MAPK was isolated from cell lysates on DEAE sephacel columns and MAPK activation was measured by phosphorylation of the EGFR peptide substrate. Panel C depicts the concentration curve of MAPK activation by TNFα. Cells were treated with the indicated concentration of TNFα and MAPK was assayed.
(§2) Cell lines and culture. L929 cells (ATCC CCL1 were maintained in Dulbecco's modified Eagle's medium with 5% newborn calf serum and 5% bovine calf serum (BCS) supplemented with 100 ug/ml streptomycin and 100 U/ml penicillin. The cells were grown in 10 cm dishes at 37° C. in 7.5% CO2. Cells were made quiescent where indicated by incubation in Dulbecco's modified Eagle's medium and 0.1% bovine serum albumin for 24 h. Recombinant murine TNFα and recombinant human bFGF (147aa) were from R&D Systems, Minneapolis, Minn. Cells were pretreated where indicated with the MEK-1 inhibitor PD#098059 (Parke-Davis Pharmaceutical Corp. Ann Arbor, Mich.) for 1 h at 37° C. Cells were stimulated by incubation with the indicated cytokine or growth factor for various times at 37° C. Stimulation was stopped by rinsing the plates twice with ice cold phosphate buffered saline (PBS) and lysing the cells in the appropriate lysis buffer. Cells were scraped from the plates and nuclei were pelleted for 10 min at 14,000 RPM in a microcentrifuge. JNK assay. JNK activity was measured using a solid state kinase assay in which glutathione S-transferase-c-Jun (1-79) (GST-JUN) cound to glutathione-Sepharose 4B beads was used to affinity purify JNK and then JNK activity was measured in an in vitro kinase assay using the sepharose bound GST-Jun as a substrate (Hibi, M., et al. (1993) Genes & Development 7:2135-2148). Stimulated or unstimulated cells were lysed in 0.5% Nonidet P-40, 20 mM HEPES pH 7.2, 100 mM NaCl, 2 mM dithiothreitol, 1 mM EDTA, 1.0 mM phenylmethylsulfonylfluoride, 1 μg/ml aprotinin and the nuclei pelleted. Lysates were normalized for protein content. JNK was affinity purified from 50-100 μg of cell lysate by the addition of 10 ul of GST-Jun sepharose slurry (2 μg GST-Jun). Binding to GST-Jun efficiently isolates the two major forms of JNK (p45 and p55) and under the conditions used JNK isolation was linear for 10-250 μg of cell lysate. The lysates were rotated at 4° C. for 1-3 h. Beads were washed twice in lysis buffer and then twice in PAN (10 mM PIPES, pH 7.0, 100 mM NaCl, 21 μg/ml aprotinin). Kinase reactions were carried out at 30° C. for 15 min in 20 mM Hepes pH 7.2, 20 mM β-glycerophosphate, 10 mM p-nitrophenyl phosphate, 10 mM MgCl2, 1 mM dithiothreitol, 50 μm sodium vanadate, 10 μCi γ^32P-ATP 4300 Ci/mmole. The kinase reaction was linear from 0-30 min. MAPK Assay MAPK activity was measured exactly as described previously (Gardner, A. M., et al. (1994) Meth. Enzymol. 238:258-270) with the exception that MonoQ FPLC fractionation was replaced by step elution from a DEAE-Sephacel column using 0.5 M NaCl in loading buffer. The eluate was assayed in triplicate using the epidermal growth factor receptor 662-681 peptide (EGFR662-681) as a selective substrate for MAPK activity (Heasley, L. E., et al. (1994) American Journal of Physiology (Renal Fluid Electrolyte Physiol. 36) 267:F366-F373). […] Cells were lysed by scraping in ice cold RIPA buffer (50 mM Tris-HCl, pH 7.2, 150 mM NaCl, 0.1% SDS, 0.5% sodium deoxycholate, 1.0% Triton X-100, 10 mM sodium pyrophosphate, 25 mM β-glycerophosphate, 2 mM sodium vanadate, 2.1 μg/ml aprotinin) and the nuclei were pelletted. […]

Raf-B = Raf-B immunoprecipitate kinase assay from PC12 cells with kinase inactive MEK-1; format: cell-based; details: PC12 cells, EGF 30 ng/ml 5 minutes
p42/p44 MAPK = experiment: MAPK assay (DEAE-Sephacel, EGFR662-681 peptide) in L929 cells; format: cell-based, murine; details: L929 cells
Method: as §1
FIG. 26 depicts the activation of MAPK by bFGF in L929 cells. Serum starved L929 cells were stimulated for 10 min with the indicated concentration of bFGF.
as §2

GST-Ras^V12 = experiment: Direct binding of purified MEKKCOOH-His to GST-Ras^V12, read by phosphorylation of kinase inactive MEK1; details: 100 μM peptide, pre-incubation 1 hr at 4° C.
Source text: A construct encoding the kinase domain of a Rat MEKK1 cDNA (95% identical to mouse MEKK1) with a N-terminal hexahistidine tag (referred to herein as MEKKCOOH-His; provided by Dr. Melanie Cobb, Department of Pharmacology, University of Texas Southwestern Medical School, Dallas, Tex.) was expressed in bacteria and soluble active enzyme was purified on Ni2+-NTA agarose according to the method generally described in Gardner et al. (Methods of Enzymology 238:258-270, 1994) Purified recombinant MEKKCOOH-His was incubated with either GST or GST-Ras^V12 in PAN buffer (10 mM PIPES [pH 7.0], 100 mM NaCl, 0.2 U/ml aprotinin) for 1 hr at 4° C. The agarose beads were pelleted and washed 3 times in PAN buffer. […] To test the direct interaction of MEKK1 with the effector domain of Ras, samples were prepared by pre-incubating the agarose beads with either 100 μM of Ras peptide consisting of residues 17-42 of H-Ras or 100 μM of Ras control peptide ([D-Arg^1,D-Phe^5,DTrp^7,9,Leu^11] substance P peptide for 1 hr at 4° C. prior to addition of the MEK1 substrate. A control reaction containing wild-type MEKK1 which autophosphorylates, served as a marker for the MEKK1 substrate. Reactions were terminated by addition of 5× Laemmlei SDS sample buffer, boiled and resolved by SDS-PAGE.

Swiss 3T3 cells = experiment: MEKKCOOH-induced cell death after nuclear microinjection of expression plasmids; format: cell-based
Method: Swiss 3T3 and REF52 cells were plated on acid-washed glass cover slips in Dulbecco's Modified Eagle's Medium (DMEM) and 10% bovine calf serum (BCS) or newborn calf serum (NCS). Cells were placed in DMEM/0.1% calf serum for overnight incubation prior to microinjection and used for injection at 50-70% confluence. Injections were performed with an Eppendorf automated microinjection system with needles pulled from glass capillaries on a vertical pipette puller (Kopf, Tujunga, Calif.). Cells were injected with pCMVβ-gal in the presence or absence of pCMV5MEKKCOOH or pCMV5BxBRaf at 20-100 ng/μl for each expression plasmid in 100 mM KC1, 5 mM NaPO4, pH 7.3. Following injection cells were placed in 1% NCS for 12-18 hr (Swiss 3T3) or 42 hr (REF52) prior to fixation with paraformaldehyde and staining. Similar results were obtained when cells were placed in 10% NCS after microinjection. Propidium iodide ([…]) was used to stain DNA. X-Gal reactions were performed for six hr.
Swiss 3T3 cells were microinjected with 100 ng/μl pCMVβ-gal and 20 ng/μl pCMV5MEKKCOOH. To label free DNA ends fixed and rehydrated cells were incubated with terminal deoxytransferase (TDT) and 10 nM biotin-dUTP following the manufacturer's instructions (Boehringer-Mannheim). Cells were stained with FITC-streptavidin to label DNA fragments. β-gal was detected using rabbit anti-p-gal antibody (Cappel Labs) and a rhodamine-labeled goat anti-rabbit antibody (Cappel Labs).
Seventeen hours after injection cells were fixed and stained for, β-galactosidase activity with X-Gal. Injected cells attached to the coverslip were scored as positive for cell death when they were highly condensed, small round cells.

[1] = 100 ng/μl plasmids, seventeen hours after injection, X-Gal

N17 Ras: Dominant negative Ha-ras (Asn 17), inhibitory Ras [reference compound]
effect on TNFα induced apoptosis (L929 cells; 5 ng/ml TNFα): did not affect | effect on ability of bFGF to protect against TNFα-mediated cell death (L929 cells; TNFα plus bFGF): markedly inhibit | effect on activation of MEKK by EGF (98 kD PC12 cell MEKK; PC12 cells, EGF 30 ng/ml 5 minutes): inhibited the activation of MEKK by EGF | effect on TNFα stimulation of JNK (JNK): had no effect on TNF stimulation of JNK | effect on activation of Raf-B by EGF (Raf-B): greatly reduced | effect on bFGF stimulation of MAPK activity (p42/p44 MAPK): significantly blunted bFGF stimulation of MAPK

CCCCCCCCCCCCCC(=O)O[C@@H]1[C@@H](C)[C@@]2(O)[C@@H](C=C(CO)C[C@]3(O)C(=O)C(C)=C[C@@H]23)[C@H]2C(C)(C)[C@]12OC(C)=O [TPA, reference compound]
MEKK activity after stimulation (in words) (98 kD PC12 cell MEKK): also activated MEKK, although to a lesser degree than EGF

NGF: Nerve growth factor
MEKK activity after stimulation (in words) (98 kD PC12 cell MEKK): slight increase in MEKK activity; also recorded: also activated MEKK, although to a lesser degree than EGF

Ras effector peptide: Ras peptide consisting of residues 17-42 of H-Ras (SALTIQLIQNHFVDEYDPTIEDSYRK; UniProt P01112 17-42, looked up, fragment)
effect on binding of GST-Ras^V12(GTPγS) agarose to MEKKCOOH-His (GST-Ras^V12): prevented the binding

β-gal [reference compound]
Condensed Cells (number) (Swiss 3T3 cells; [1]): 4 | Condensed Cells (percent of cells injected) (Swiss 3T3 cells; [1]): (1%) | injected cells with an altered morphology (Swiss 3T3 cells; 48-72 hours post-injection): < 1%

[D-Arg^1,D-Phe^5,D-Trp^7,9,Leu^11] substance P peptide [reference compound]
effect on binding of GST-Ras^V12(GTPγS) agarose to MEKKCOOH-His (GST-Ras^V12): able to bind

Reference: US20080201790A1, “Method and product for regulating cell responsiveness to external signals” (priority 1993, published 2008)
